Data taken from US10106526B2, “Inhibitors of cyclin-dependent kinase 7 (CDK7)” (SYROS PHARMACEUTICALS, INC., priority 2014, dated 2018).

Assays:
[1] = target: T1, CDK7 (Homo sapiens, UniProt P50613); test: CDK7 kinase activity, Adapta kinase assay (Life Technologies); type: biochemical; conditions: Adapta kinase assay at Life Technologies; 10 μM down to 0.514 nM, 3-fold serial dilutions; read-out: CDK7 Inhibition (IC50)
T1 construct: purchased Life Technologies (Adapta kinase assay service)
Method in brief: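 Adapta kinase activity assay run as a commercial service; substrates not specified here. Compounds tested in 3-fold serial dilutions from 10 μM down to 0.514 nM.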

[2] = target: CDK7/Cyclin H/MAT1 trimeric complex (Homo sapiens, UniProt P50613); test: CDK7 kinase assay, Caliper/LabChip EZ Reader (Biortus Biosciences); type: biochemical; conditions: CDK7/Cyclin H/MAT1 10 nM, ATP 2 mM, FAM-CDK7tide 2 μM, 30 min incubation, read-out: CDK7 Inhibition (IC50)
Procedure: Compounds of the invention were further assayed for CDK7 activity at Biortus Biosciences (Jiangyin, Jiangsu Province, P.R. of China) using a CDK7 kinase assay developed with a Caliper/LabChip EZ Reader (Perkin Elmer, Waltham, Mass.). […] The incubation period was chosen such that the total fraction of phosphorylated peptide product produced was <20% for the uninhibited kinase.

[3] = test system: Jurkat cells; test: Inhibition of proliferation of Jurkat cells (CellTiter-Glo, 72 hour); type: cell-based, human; conditions: 10 μM to 316 pM
Method in brief: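 Human T-cell leukemia Jurkat cells in RPMI 1640 with 10% FBS were exposed 72 h at 37 °C, 5% CO2 to compounds from 10 μM to 316 pM in 0.5-log steps. Anti-proliferative effect measured by CellTiter-Glo; IC50 reported in binned categories.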

[4] = test system: A673 cells; test: Inhibition of proliferation of A673 cells (CyQUANT, 72 hour); type: cell-based, human; conditions: 72 hour proliferation
Method in brief: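 Human Ewing's sarcoma A673 cells in DMEM + 10% FBS + 1 mM sodium pyruvate, 37 °C, 5% CO2, exposed to compounds from 4 μM to 126.4 pM (0.5 log dilutions) for 72 h. Proliferation read by CyQUANT; IC50 reported as binned categories.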

Chain of CDK7/Cyclin H/MAT1 trimeric complex (P50613 whole entry): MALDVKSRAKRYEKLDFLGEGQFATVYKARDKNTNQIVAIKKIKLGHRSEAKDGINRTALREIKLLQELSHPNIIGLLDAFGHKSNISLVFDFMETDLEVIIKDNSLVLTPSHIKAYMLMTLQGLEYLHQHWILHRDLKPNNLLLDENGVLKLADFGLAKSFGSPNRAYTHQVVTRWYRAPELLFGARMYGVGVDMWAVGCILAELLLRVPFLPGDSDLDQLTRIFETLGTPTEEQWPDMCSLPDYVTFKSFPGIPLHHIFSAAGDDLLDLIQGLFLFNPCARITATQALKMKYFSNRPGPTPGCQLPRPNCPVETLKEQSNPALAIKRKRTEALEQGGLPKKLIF
Chain of CDK7/Cyclin H/MAT1 trimeric complex (P51946 whole entry partner): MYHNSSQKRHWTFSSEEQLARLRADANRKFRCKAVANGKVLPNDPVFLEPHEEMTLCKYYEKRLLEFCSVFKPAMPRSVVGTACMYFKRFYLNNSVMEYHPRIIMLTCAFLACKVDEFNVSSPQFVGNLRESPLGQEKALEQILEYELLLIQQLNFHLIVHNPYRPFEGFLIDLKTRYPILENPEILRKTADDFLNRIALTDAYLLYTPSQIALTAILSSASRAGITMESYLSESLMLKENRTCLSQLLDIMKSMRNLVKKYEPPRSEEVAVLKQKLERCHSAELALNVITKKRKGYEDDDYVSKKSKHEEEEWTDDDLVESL
Chain of CDK7/Cyclin H/MAT1 trimeric complex (P51948 whole entry partner): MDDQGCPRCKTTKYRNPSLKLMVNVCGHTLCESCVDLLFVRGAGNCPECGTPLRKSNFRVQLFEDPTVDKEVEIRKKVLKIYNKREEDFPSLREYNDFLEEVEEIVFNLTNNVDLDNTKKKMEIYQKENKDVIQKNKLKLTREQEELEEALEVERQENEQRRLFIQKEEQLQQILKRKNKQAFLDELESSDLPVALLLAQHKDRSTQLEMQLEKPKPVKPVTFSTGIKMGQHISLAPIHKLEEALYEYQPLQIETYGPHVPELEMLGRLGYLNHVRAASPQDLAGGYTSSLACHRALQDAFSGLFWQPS
T1 sequence (P50613 whole entry): as the sequence (P50613 whole entry) above
T1 sequence (P51946 whole entry partner): as the sequence (P51946 whole entry partner) above
T1 sequence (P51948 whole entry partner): as the sequence (P51948 whole entry partner) above

With C=CC(=O)N1CCC[C@@H]1C(=O)N[C@H]1CCC[C@@H](Nc2ncc(Cl)c(-c3c[nH]c4ccccc34)n2)C1 [Compound 173, (R)-1-acryloyl-N-((1S,3R)-3-(5-chloro-4-(1H-indol-3-yl)pyrimidin-2-ylamino)cyclohexyl)pyrrolidine-2-carboxamide] the IC50 [1] was under 100 nM, the IC50 [2] was under 100 nM and the IC50 ([3]; Homo sapiens) was 500 to 5000 nM.

CN(C)C/C=C/C(=O)Nc1ccc(C(=O)N[C@H]2CCC[C@@H](Nc3ncc(Cl)c(-c4c[nH]c5ccccc45)n3)C2)nc1 [Compound 106, N-((1S,3R)-3-(5-chloro-4-(1H-indol-3-yl)pyrimidin-2-ylamino)cyclohexyl)-5-((E)-4-(dimethylamino)but-2-enamido)picolinamide] gave an IC50 [1] of under 100 nM, an IC50 [2] of under 100 nM and an IC50 ([4]; Homo sapiens) of under 500 nM.

With C=CC(=O)N1CCN([C@H]2CCC[C@@H](Nc3ncc(Cl)c(-c4c[nH]c5ccccc45)n3)C2)CC1 [Compound 168, 1-(4-((1S,3R)-3-(5-chloro-4-(1H-indol-3-yl)pyrimidin-2-ylamino)cyclohexyl)piperazin-1-yl)prop-2-en-1-One] the IC50 [1] was under 100 nM, the IC50 [2] was under 100 nM and the IC50 ([4]; Homo sapiens) was under 500 nM.

Compound C=CC(=O)N1CCN(CC2(O)CCC[C@@H](Nc3ncc(Cl)c(-c4c[nH]c5ccccc45)n3)C2)CC1 (single isomer, unassigned) [Compound 188] has an IC50 [2] of under 100 nM, an IC50 [3] of under 500 nM and an IC50 [4] of under 500 nM.

CN(C)CC=CC(=O)N1CC(N(C)C2CCCC(Nc3ncc(Cl)c(-c4c[nH]c5ccccc45)n3)C2)C1 (centres unmarked) [Compound 231] was tested, and the IC50 [1] was under 100 nM and the IC50 [2] was under 100 nM.

Work on Cc1cnc(N[C@@H]2CCC[C@H](NC(=O)c3ccc(NC(=O)/C=C/CN(C)C)cn3)C2)nc1-c1c[nH]c2ccccc12 [Compound 265, N-((1S,3R)-3-((4-(1H-indol-3-yl)-5-methylpyrimidin-2-yl)amino)cyclohexyl)-5-((E)-4-(dimethylamino)but-2-enamido)picolinamide] yielded an IC50 [2] of under 100 nM and an IC50 ([4]; Homo sapiens) of under 500 nM.

C=CC(=O)N1CCN([C@H]2CCC[C@@H](Nc3ncc(Cl)c(-c4c[nH]c5ccc(OC)cc45)n3)C2)CC1 [Compound 375, 1-(4-((1S,3R)-3-(5-chloro-4-(5-methoxy-1H-indol-3-yl)pyrimidin-2-ylamino)cyclohexyl)piperazin-1-yl)prop-2-en-1-One] showed an IC50 [2] of over 1000 nM and an IC50 ([4]; Homo sapiens) of under 500 nM.

Compound C=C(F)C(=O)N1CCN([C@H]2CCC[C@@H](Nc3ncc(Cl)c(-c4c[nH]c5ccccc45)n3)C2)CC1 [compound 401] has an IC50 [2] of under 100 nM and an IC50 [4] of under 500 nM.

In the case of CCc1cnc(N[C@@H]2CCC[C@](C)(NC(=O)c3ccc(NC(=O)/C=C/CN(C)C)cn3)C2)nc1-c1c(C)[nH]c2ccccc12 [Compound 412, 5-[[(E)-4-(dimethylamino)but-2-enoyl]amino]-N-[(1S,3R)-3-[[5-ethyl-4-(2-methyl-1H-indol-3-yl)pyrimidin-2-yl]amino]-1-methyl-cyclohexyl]pyridine-2-carboxamide], the IC50 [2] is reported as 100 to 1000 nM and the IC50 ([4]; Homo sapiens) is reported as under 500 nM.

Compound C=CC(=O)N1CCN([C@H]2CCC[C@@H](Nc3ncc(Cl)c(-c4c[nH]c5c(OC)cccc45)n3)C2)CC1 [compound 395] has an IC50 [2] of 100 to 1000 nM and an IC50 [4] of under 500 nM.

C=CC(=O)N1CCN(C2CCCC(Nc3ncc(Cl)c(-c4c[nH]c5ccccc45)n3)C2)C(C)C1 (centres unmarked) [Compound 257] was tested, and the IC50 [2] was 100 to 1000 nM and the IC50 [4] was under 500 nM.

In the case of CN(C)C/C=C/C(=O)Nc1ccc(C(=O)N[C@@]2(C)CCC[C@@H](Nc3ncc(C(F)(F)F)c(-c4c[nH]c5ccccc45)n3)C2)nc1 [Compound 399, 5-[[(E)-4-(dimethylamino)but-2-enoyl]amino]-N-[(1S,3R)-3-[[4-(1H-indol-3-yl)-5-(trifluoromethyl)pyrimidin-2-yl]amino]-1-methyl-cyclohexyl]pyridine-2-carboxamide], the IC50 [2] is reported as under 100 nM and the IC50 ([4]; Homo sapiens) is reported as under 500 nM.

Work on C=CC(=O)N1CCC(CNC2(C)CCCC(Nc3ncc(Cl)c(-c4c[nH]c5ccccc45)n3)C2)CC1 (centres unmarked) [Compound 268] yielded an IC50 [2] of under 100 nM and an IC50 [4] of under 500 nM.

For CN(C)C/C=C/C(=O)Nc1ccc(CN[C@@]2(C)CCC[C@@H](Nc3ncc(Cl)c(-c4c[nH]c5ccccc45)n3)C2)nc1 [Compound 294, (E)-N-(6-(((1S,3R)-3-(5-chloro-4-(1H-indol-3-yl)pyrimidin-2-ylamino)-1-methylcyclohexylamino)methyl)pyridin-3-yl)-4-(dimethylamino)but-2-enamide], the IC50 [2] was under 100 nM and the IC50 ([4]; Homo sapiens) was under 500 nM.

Work on C=CC(=O)N1CCN([C@@]23CCC[C@@](Nc4ncc(Cl)c(-c5c[nH]c6ccccc56)n4)(CC2)C3)CC1 [Compound 409, 1-(4-((1S,5R)-5-(5-chloro-4-(1H-indol-3-yl)pyrimidin-2-ylamino)bicyclo[3.2.1]octan-1-yl)piperazin-1-yl)prop-2-en-1-One] yielded an IC50 [2] of under 100 nM and an IC50 ([4]; Homo sapiens) of under 500 nM.

With C=CC(=O)N1CC(F)(F)C[C@H]1C(=O)N[C@H]1CCC[C@@H](Nc2ncc(C#N)c(-c3c[nH]c4ccccc34)n2)C1 [compound 392] the IC50 [2] was under 100 nM and the IC50 [4] was under 500 nM.

Compound CN(C)C/C=C/C(=O)N1CCCC(N2CC(Nc3ncc(Cl)c(-c4c[nH]c5ccccc45)n3)C2)C1 (centres unmarked) [compound 389] has an IC50 [2] of over 1000 nM and an IC50 [4] of under 500 nM.

In the case of C=CC(=O)N1CCN([C@H]2CCC[C@@H](Nc3ncc(Cl)c(-c4n[nH]c5ccccc45)n3)C2)CC1 [compound 388], the IC50 [2] is reported as 100 to 1000 nM and the IC50 [4] is reported as under 500 nM.

CN(C)C/C=C/C(=O)N(C)c1ccc(CN[C@H]2CCC[C@@H](Nc3ncc(Cl)c(-c4c[nH]c5ccccc45)n3)C2)nc1 [Compound 390, (E)-N-(6-((((1S,3R)-3-((5-chloro-4-(1H-indol-3-yl)pyrimidin-2-yl)amino)cyclohexyl)amino)methyl)pyridin-3-yl)-4-(dimethylamino)-N-methylbut-2-enamide] showed an IC50 [2] of under 100 nM and an IC50 ([4]; Homo sapiens) of under 500 nM.

For CN(C)C/C=C/C(=O)Nc1ccc(C(=O)N[C@H]2CCC[C@@H](Nc3ncc(Cl)c(-c4cccc5[nH]ccc45)n3)C2)nc1 [Compound 264, N-((1S,3R)-3-((5-chloro-4-(1H-indol-4-yl)pyrimidin-2-yl)amino)cyclohexyl)-5-((E)-4-(dimethylamino)but-2-enamido)picolinamide], the IC50 [2] was under 100 nM and the IC50 ([4]; Homo sapiens) was under 500 nM.

Compound C=CC(=O)N1CC(F)(F)C[C@H]1C(=O)N[C@H]1CCC[C@@H](Nc2ncc(Cl)c(-c3c[nH]c4ccccc34)n2)C1 [Compound 116, (S)-1-acryloyl-N-((1S,3R)-3-(5-chloro-4-(1H-indol-3-yl)pyrimidin-2-ylamino)cyclohexyl)-4,4-difluoropyrrolidine-2-carboxamide] has an IC50 [1] of under 100 nM, an IC50 [2] of under 100 nM and an IC50 ([4]; Homo sapiens) of under 500 nM.

For CN(C)C/C=C/C(=O)Nc1ccc(C(=O)N[C@H]2CCC[C@@H](Nc3ncc(Cl)c(-c4cccc5c4ccn5C)n3)C2)nc1 [Compound 269, N-((1S,3R)-3-((5-chloro-4-(1-methyl-1H-indol-4-yl)pyrimidin-2-yl)amino)cyclohexyl)-5-((E)-4-(dimethylamino)but-2-enamido)picolinamide], the IC50 [2] was under 100 nM and the IC50 ([4]; Homo sapiens) was under 500 nM.

CCc1cnc(N[C@@H]2CCC[C@H](NC(=O)c3ccc(NC(=O)/C=C/CN(C)C)cn3)C2)nc1-c1c[nH]c2ccccc12 [Compound 262, 5-[[(E)-4-(dimethylamino)but-2-enoyl]amino]-N-[(1S,3R)-3-[[5-ethyl-4-(1H-indol-3-yl)pyrimidin-2-yl]amino]cyclohexyl]pyridine-2-carboxamide] showed an IC50 [2] of under 100 nM and an IC50 ([4]; Homo sapiens) of under 500 nM.

C=CC(=O)Nc1ccc(CN[C@H]2CCC[C@@H](Nc3ncc(Cl)c(-c4c[nH]c5ccccc45)n3)C2)nc1 [Compound 258] showed an IC50 [2] of under 100 nM and an IC50 ([4]; Homo sapiens) of under 500 nM.

CN(C)C/C=C/C(=O)N1CC(F)(F)C[C@H]1C(=O)N[C@H]1CCC[C@@H](Nc2ncc(Cl)c(-c3c[nH]c4ccccc34)n2)C1 [compound 394] gave an IC50 [2] of under 100 nM and an IC50 [4] of under 500 nM.

Work on CN(C)C/C=C/C(=O)Nc1ccc(C(=O)N[C@H]2CCC[C@@H](Nc3ncc(C(F)(F)F)c(-c4c[nH]c5ccccc45)n3)C2)nc1 [Compound 248, N-((1S,3R)-3-((4-(1H-indol-3-yl)-5-(trifluoromethyl)pyrimidin-2-yl)amino)cyclohexyl)-5-((E)-4-(dimethylamino)but-2-enamido)picolinamide] yielded an IC50 [1] of under 100 nM, an IC50 [2] of under 100 nM and an IC50 ([4]; Homo sapiens) of under 500 nM.

CN(C)C/C=C/C(=O)Nc1ccc(CN[C@@]2(C)CCC[C@@H](Nc3ncc(C(F)(F)F)c(-c4c[nH]c5ccccc45)n3)C2)nc1 [Compound 403, (E)-4-(dimethylamino)-N-[6-[[[(1S,3R)-3-[[4-(1H-indol-3-yl)-5-(trifluoromethyl)pyrimidin-2-yl]amino]-1-methylcyclohexyl]amino]methyl]-3-pyridyl]but-2-enamide] was tested, and the IC50 [2] was under 100 nM and the IC50 ([4]; Homo sapiens) was under 500 nM.

Work on C=CC(=O)N1CCN([C@H]2CCC[C@@H](Nc3ncc(Cl)c(-c4c[nH]c5ccc(C)cc45)n3)C2)CC1 [Compound 340, 1-(4-((1S,3R)-3-(5-chloro-4-(5-methyl-1H-indol-3-yl)pyrimidin-2-ylamino)cyclohexyl)piperazin-1-yl)prop-2-en-1-One] yielded an IC50 [2] of under 100 nM and an IC50 ([4]; Homo sapiens) of under 500 nM.
